Experimental data taken from patent publication US10577336B2, “Morpholine and 1,4-oxazepane amides as somatostatin receptor subtype 4 (SSTR4) agonists” (Boehringer Ingelheim International GmbH, priority 2014, dated 2020).
pEC50: −log10 of the molar value.

Columns and labels:
[1] = target: human Somatostatin 4 receptor (hSSTR4) (Homo sapiens (Human), UniProt P31391); test: cAMP assay with human somatostatin 4 receptor (inhibition of forskolin-stimulated cAMP, hSSTR4 expressing H4 cells); type: cell-based; conditions: read-out: SSTR4 agonism EC50
Sequence of human Somatostatin 4 receptor (hSSTR4) (P31391 whole entry): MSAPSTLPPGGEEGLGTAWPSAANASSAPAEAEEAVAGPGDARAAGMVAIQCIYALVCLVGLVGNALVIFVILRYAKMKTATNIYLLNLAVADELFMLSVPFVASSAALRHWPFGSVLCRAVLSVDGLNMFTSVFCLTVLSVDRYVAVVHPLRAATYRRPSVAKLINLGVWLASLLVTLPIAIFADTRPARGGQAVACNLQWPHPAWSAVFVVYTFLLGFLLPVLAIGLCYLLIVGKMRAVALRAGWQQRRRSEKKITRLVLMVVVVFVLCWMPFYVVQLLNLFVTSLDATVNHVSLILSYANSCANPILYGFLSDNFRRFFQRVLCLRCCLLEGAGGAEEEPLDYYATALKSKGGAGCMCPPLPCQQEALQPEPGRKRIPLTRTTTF

in vitro = conditions: human, microsomes, pH 7.6
[2] = Metabolic stability in pooled human liver microsomes (half-life); conditions: 37° C., 1 μM test compound

| Structure (SMILES) | pEC50 [1] | half-life at 1 μM (in vitro) | Half-life t1/2 [2] |
| --- | --- | --- | --- |
| CC(C)(NC(=O)[C@H]1CNCCO1)c1ccnc2ccccc12 [Example 8] | 6.59 | – | – |
| Cn1nc(C(C)(C)NC(=O)[C@@H]2CNCCO2)c2cccc(Cl)c21 [Example 79] | – | – | 1.67 h |
| Cc1cccc2c(C(C)(C)NC(=O)[C@@H]3CNCCO3)nn(C)c12 [Example 83] | – | – | >2.17 h |
| Cc1nc(C(C)(C)NC(=O)[C@@H]2CNCCO2)n2cccc(F)c12 [Example 98] | 7.07 | – | – |
| COc1cccn2c(C(C)(C)NC(=O)[C@@H]3CNCCO3)ncc12 [Example 99] | 7.36 | – | – |

More lines, in order of rising pEC50 [1], values ahead:

| pEC50 [1] | half-life at 1 μM (in vitro) | Half-life t1/2 [2] | Structure (SMILES) |
| --- | --- | --- | --- |
| 7.69 | – | – | Cc1cccn2c(C3(NC(=O)C4CNCCOC4)CC3)ncc12 (stereo not shown) [Example 5] |
| 7.76 | – | – | CC(C)(NC(=O)C1CNCCOC1)c1noc2c(Cl)cccc12 (racemic) [Example 72] |
| 8.00 | – | – | Cn1nc(C(C)(C)NC(=O)C2CNCCOC2)c2cccc(F)c21 (racemic) [Example 76] |
| 8.08 | > 2.17 h | – | CC(C)(NC(=O)C1CNCCOC1)c1noc2c(Cl)cccc12 (single isomer, unassigned) [Example 73] |
